Assay results taken from patent US12280026B2, “Use of repirinast in the prophylaxis or treatment of renal fibrosis or kidney disease” (ALGERNON PHARMACEUTICALS INC., priority 2018, dated 2025).
Entries after “also recorded” stand apart in the source; their conditions may differ. Marks after values point to notes of the source that are not given here.

Assays:
[1] = system: C57BL/6 mice with UUO surgical ligation; experiment: Example 1: UUO mice, renal function evaluation (plasma BUN, creatinine); assay type: in vivo; settings: Example 1; for Reduction in BUN compared to vehicle, significance in words: Bonferroni post-test, Suplatast Tosylate 60, Iguratimod 15, Lobenzarit 48, Actarit 60, Udenafil 40 mg/kg PO QD; for BUN in comparison to control groups, in words: UUO, male C57BL/6 mice, PO QD days 1-14, doses of Table 1
Protocol: (§1) Male 9-12 week old C57BL/6 mice of 23-25 grams body weight were used. All mice were acclimated for a minimum of 5 days prior to the start of the study and housed individually in microisolators throughout the study in a 12:12 light-dark cycle on a standard maintenance mouse chow diet (Harlan Teklad 2018) with food and water given ad libitum. Prior to surgery, all mice were weighed for baseline body weight.
(§2) The UUO surgical intervention was performed according to previously described methods known in the art (Le Meur Y et al., Macrophage accumulation at a site of renal inflammation is dependent on the M-CSF/c-fms pathway, J Leukocyte Biol., 72:530-537; 2002).
(§3) All mice were first anesthetized by intraperitoneal injection with a rodent cocktail (ketamine 10 mg/mL and Xyaline 1 mg/mL) in normal saline (10 μL/g body weight). Pedal reflex and movement of the vibrissae were used to determine the state of unconsciousness. A state of unconsciousness was confirmed after a period of about 5 minutes in all animals. All mice were then shaved on the left side of the abdomen. The shaved area was first swabbed with iodine and then swabbed with alcohol. A vertical incision was made through the skin with a #22 scalpel and the skin was then retracted. A further incision of about 2.5 cm was then made through the peritoneum avoiding any major blood vessels. The peritoneum was then retracted and the left kidney was exposed.
(§4) The left kidney was then brought to the surface by hooking the ureter directly beneath the kidney with sterile forceps and gently manipulating the kidney upward. The ureter was ligated at two points directly below the kidney with 5-0 surgical silk with excess suture cut away and discarded post-ligation. The kidney was then gently placed back to its correct anatomical position and the abdomen was lavaged with 1 mL sterile saline to replenish fluid loss. The peritoneum and then skin were sutured with 5-0 Mersilene, and the incision site was gently wiped with iodine. All mice were then placed individually in clean cages that were set on top of a thermal blanket until recovery at about 30-60 minutes later. In some examples, sham surgery was performed as a control by following all steps of the UUO surgical intervention procedure except ligation.
(§5) Following surgery, the mice were divided into 14 individual study groups of 8 mice each and, following post-surgical recovery, administered a once-daily oral treatment for 14 days. The mice in 12 of the 14 study groups (hereafter known as “treatment groups”) had all received the UUO surgical ligation and were treated individually with a distinct pharmacologic compound as set out in Table 1. The mice in 2 of the 14 study groups were treated individually with a pharmaceutically acceptable vehicle with no active ingredient. The pharmaceutically acceptable vehicle in all groups was 0.5% carboxymethyl cellulose (CMC). All mice were sacrificed with CO2 on post-surgical day 15.
(§6) The dose selected for the animal studies was determined by taking the maximum known human daily dose, dividing by the average weight of an adult (˜60-70 kg) to get a human mg/kg dose. Then that number was multiplied by 12 to convert to a mouse dose based on conventional dosing tables. See Nair and Jacob, J Basic Clin Pharm March 2016-May 2016, 7(2):27-31.
(§7) Serum collection: A blood sample was then collected from all mice and plasma analyzed for urea nitrogen and creatinine. Plasma was stored at −80° C. for possible future analysis.
(§8) Renal Function Evaluation: Renal function and disease progression was evaluated by BUN (blood urea nitrogen) as previously described. The BUN of each study group consisted of the BUN average of all mice in each study group.

[2] = system: C57BL/6 mice with UUO surgical ligation; experiment: Example 2: UUO mice, renal fibrosis evaluation (Sirius Red histology score); assay type: in vivo
Protocol: (§9) In this example, healthy young female C57BL/6 mice were used for the study. At the commencement of the study, mice were between 9-12 weeks of age, weighing 23-25 g. All the mice were obtained from Charles River Laboratories.
(§10) The mice were maintained in a controlled environment with a temp 70-72° F., humidity 30-70%, with a photo cycle of 12 hours of light and 12 hours of dark. They were provided with Harlan Teklad 2018 standard maintenance mouse chow diet and drinking water ad libitium.
(§11) After five days of acclimatization, the mice were grouped according to their body weight. There were ten groups of ten mice each. Nine groups of ten mice each underwent UUO as described above and the other group of ten mice underwent a sham procedure to serve as a no-surgery control.
(§12) Following surgery, the mice were divided into 10 individual study groups of 10 mice each and, following post-surgical recovery, administered a once-daily oral treatment for 14 days. The mice in 8 of the 10 study groups had all received the UUO surgical ligation and were treated individually with a distinct pharmacologic compound as set out in Table 6. The mice in 2 of the 10 study groups were treated individually with a pharmaceutically acceptable vehicle with no active ingredient. The pharmaceutically acceptable vehicle in all groups was 0.5% carboxymethyl cellulose (CMC). All mice were sacrificed with CO2 on post-surgical day 15.
as §6, with “That” for “Then that”
(§13) Histopathology: Formalin-fixed kidney cross-section samples were subjected histopathological scoring with Sirius Red staining, and imaged at a magnification of ×20, using standard techniques. All three sections were stained and evaluated. The analysis was performed by a board-certified veterinarian pathologist. The presence of interstitial damage and severity score was assessed according to the following criteria: 0=normal; 1=light; 2=moderate; 3=severe.
(§14) The data are presented as the mean obtained from Microsoft Excel or GraphPad Prism version 5.00 for Windows (GraphPad Software, San Diego California USA). Data were analyzed using two-way ANOVA using Bonferroni and Tamhane post-tests. Differences between groups were considered significant at p<0.05.
Renal Fibrosis Evaluation: Renal fibrosis and interstitial damage was evaluated by histochemical staining of renal cross-sections with Sirius Red as previously described. The Histology Score of each study group consisted of the histology score average of all mice in each study group.

[3] = Example 2: UUO mice, mean body weight change following surgery; assay type: in vivo, C57BL/6 mice; settings: UUO, female C57BL/6 mice, PO QD days 1-14, mg/kg: Telmisartan 3, Bemithyl 200, Repirinast 30, Telmisartan+Bemithyl 3+200, Telmisartan+Repirinast 3+30, Cenicriviroc 40, Bromantane 40
Protocol: as §9, §10, §11, §12
as §6, with “That” for “Then that”
Body weight: The body weights were measured on days 1, 4, 7, 10 and 14 using a laboratory balance.
Body weights were measured on post-surgical days 1, 4, 7, 10 and 14 as previously described. The mean body weight change of each study group was calculated using the body weight average of all mice in each study group.

[4] = system: C57BL/6 mice with UUO surgical ligation; experiment: Example 2: UUO mice, renal function evaluation (plasma BUN, creatinine); assay type: in vivo
Protocol: as §9, §10, §11, §12
as §6, with “That” for “Then that”
as §7, §14, §8

[5] = system: C57BL/6 mice with UUO surgical ligation; experiment: Example 2: UUO mice, kidney weight evaluation; assay type: in vivo; settings: group mean, UUO, female C57BL/6 mice, PO QD days 1-14, mg/kg: Telmisartan 3, Bemithyl 200, Repirinast 30, Telmisartan+Bemithyl 3+200, Telmisartan+Repirinast 3+30, Cenicriviroc 40, Bromantane 40
Protocol: as §9, §10, §11, §12
as §6, with “That” for “Then that”
Kidney weight: The UUO was then examined in situ to ensure that the surgical ligation ties remained patent. Both the ligated (UUO) and non-ligated kidneys were removed for analysis. Weights of both kidneys were measured using a laboratory balance.
as §14
Kidney Weight Evaluation: Kidney weight, which indicates functional and pathological changes in the kidney, was evaluated by measuring the weight of both the ligated (UUO) and non-ligated kidneys as previously described. The ligated and non-ligated kidney weights of each study group consisted of the respective kidney weight averages of all mice in each study group.

[6] = system: C57BL/6 mice with UUO surgical ligation; experiment: Example 1: UUO mice, renal fibrosis evaluation (Sirius Red histology score); assay type: in vivo; settings: Bemithyl 200, Emoxypine 160, Suplatast Tosylate 60, Udenafil 40, Telmisartan 5 mg/kg PO QD
Protocol: as §1, §2, §3, §4, §5
The dose selected for the animal studies was determined by taking the maximum known human daily dose, dividing by the average weight of an adult (˜60-70 kg) to get a human mg/kg dose. […]
as §13, with “The analysis was performed by a board-certified veterinarian pathologist.” left out, “0=normal, 1=light, 2=moderate,” for “0=normal; 1=light; 2=moderate;”, “3=severe. […]” for “3=severe.”

[7] = Example 2, mg/kg PO QD: Telmisartan 3, Bemithyl 200, Repirinast 30, Telmisartan+Bemithyl 3+200, Telmisartan+Repirinast 3+30, Cenicriviroc 40, Bromantane 40

With `CC(=O)Nc1ccc(CC(=O)O)cc1` [Actarit, (4-Acetamidophenyl)acetic acid] the “Reduction in BUN compared to vehicle, significance in words” value (“Reduction in BUN … significance in words” below) [1] was “significant reductions in BUN” and the “BUN in comparison to control groups, in words” value (from here on “BUN in comparison”) [1] was “less renal dysfunction and disease progression than the positive control treatment; also recorded: decreased in comparison to the sham surgery control group”.

With `CCCCOCCOc1ccc(-c2ccc3c(c2)/C=C(/C(=O)Nc2ccc([S@@+]([O-])Cc4cncn4CCC)cc2)CCCN3CC(C)C)cc1` [Cenicriviroc] the “Level of kidney fibrosis / histology score compared to vehicle or other agents, in words” value [2, 7] was “statistically insignificant improvements”, the “Histology Score” value ([2]; Sirius Red, 0=normal, 1=light, 2=moderate, 3=severe, group mean, UUO, female C57BL/6 mice, PO QD days 1-14, mg/kg: Telmisartan 3, Bemithyl 200, Repirinast 30, Telmisartan+Bemithyl 3+200, Telmisartan+Repirinast 3+30, Cenicriviroc 40, Bromantane 40) was 1.63*# and the “Reduction of fibrosis (%) (versus vehicle)” value ([2]; from histology score, UUO, female C57BL/6 mice, PO QD days 1-14, mg/kg: Telmisartan 3, Bemithyl 200, Repirinast 30, Telmisartan+Bemithyl 3+200, Telmisartan+Repirinast 3+30, Cenicriviroc 40, Bromantane 40) was 32%. The “Mean Body Weight Change Following Surgery, Day 1” value ([3]; Day 1) was 0 g, the “Mean Body Weight Change Following Surgery, Day 4” value ([3]; Day 4) was -0.30 g and the “Mean Body Weight Change Following Surgery, Day 7” value ([3]; Day 7) was -0.12 g. The “Mean Body Weight Change Following Surgery, Day 10” value ([3]; Day 10) was 0.18 g, the “Mean Body Weight Change Following Surgery, Day 14” value ([3]; Day 14) was 0.82 g and the “Level of BUN compared to vehicle or other agents, in words” value [4, 7] was “this reduction was not significant”. The BUN ([4]; plasma at sacrifice day 15, group mean, * significant vs vehicle Bonferroni, # Tamhane (p<0.05), UUO, female C57BL/6 mice, PO QD days 1-14, mg/kg: Telmisartan 3, Bemithyl 200, Repirinast 30, Telmisartan+Bemithyl 3+200, Telmisartan+Repirinast 3+30, Cenicriviroc 40, Bromantane 40) was 19.9 mg/dL, the Creatinine ([4]; plasma at sacrifice day 15, group mean, UUO, female C57BL/6 mice, PO QD days 1-14, mg/kg: Telmisartan 3, Bemithyl 200, Repirinast 30, Telmisartan+Bemithyl 3+200, Telmisartan+Repirinast 3+30, Cenicriviroc 40, Bromantane 40) was 0.21 mg/dL and the “Drained Left Kidney” value ([5]; ligated kidney drained) was 0.1683 g. The “Excised Left Kidney” value ([5]; ligated kidney) was 0.4091 g and the “Right Kidney (g)” value ([5]; unligated kidney) was 0.1342* g.

With `CCc1nc(C)ccc1O` [Emoxypine, 2-Ethyl-6-methyl-3-hydroxypyridine] the “Kidney fibrosis / Histology Score, significance and comparison in words” value [6] was “the same as the positive control treatment group; also recorded: significant reductions in kidney fibrosis; also recorded: significant reduction in fibrosis compared to vehicle” and the “BUN in comparison” value [1] was “less renal dysfunction and disease progression than the positive control treatment”.

With `CS(=O)(=O)Nc1cc2occ(NC=O)c(=O)c2cc1Oc1ccccc1` [Iguratimod, N-(7-(Methylsulfonamido)-4-oxo-6-phenoxy-4H-chromen-3-yl)formamide] the “Reduction in BUN … significance in words” value [1] was “significant reductions in BUN” and the “BUN in comparison” value [1] was “less renal dysfunction and disease progression than the positive control treatment; also recorded: decreased in comparison to the sham surgery control group”.

With `O=C(O)c1ccccc1Nc1cc(Cl)ccc1C(=O)O` [Lobenzarit, 2-[(2-Carboxyphenyl)amino]-4-chlorobenzoic acid] the “Reduction in BUN … significance in words” value [1] was “significant reductions in BUN” and the “BUN in comparison” value [1] was “less renal dysfunction and disease progression than the positive control treatment; also recorded: decreased in comparison to the sham surgery control group”.

With `CCCOc1ccc(S(=O)(=O)NCCC2CCCN2C)cc1-c1nc(=O)c2c([nH]1)c(CCC)nn2C` (stereo not shown) [Udenafil] the “Kidney fibrosis / Histology Score, significance and comparison in words” value [6] was “significant reductions in kidney fibrosis; also recorded: significant reduction in fibrosis compared to vehicle”, the “Reduction in BUN … significance in words” value [1] was “significant reductions in BUN” and the “BUN in comparison” value [1] was “less renal dysfunction and disease progression than the positive control treatment; also recorded: decreased in comparison to the sham surgery control group”.
